Inconclusive results and toxic doses are left out.
Test system: P335 leukemia ip, BDF1 mice, survival T/C %
Test: NCI In Vivo Anticancer Drug Screen. Data for tumor model P335 Leukemia (intraperitoneal) in B6D2F1 (BDF1) mice
Conditions: endpoint: mean survival time, higher = longer survival
Experimental: The antitumor activity of compounds was measured in mice bearing transplantable tumors. Survival or tumor size were measured and the results are expressed as the measurement made in the treated group (T) divided by the measurement made in the vehicle treated control group (C). The tumor model used in this assay is P335 Leukemia (intraperitoneal) in B6D2F1 (BDF1) mice

[1] = dose: 3.1 mg/kg/injection, schedule: Q01DX Z (ip), vehicle: carboxymethylcellulose (CMC)
[2] = dose: 25.0 mg/kg/injection, schedule: Q01DX Z (ip), vehicle: carboxymethylcellulose (CMC)
[3] = dose: 50.0 mg/kg/injection, schedule: Q01DX Z (ip), vehicle: carboxymethylcellulose (CMC)
[4] = dose: 12.5 mg/kg/injection, schedule: Q01DX Z (ip), vehicle: carboxymethylcellulose (CMC)

## CN(Cc1cnc2nc(N)nc(N)c2n1)c1ccc(C(=O)N[C@@H](CCC(=O)O)C(=O)O)cc1
dose: 0.31 mg/kg/injection, schedule: Q01DX Z (ip), vehicle: other
  T/C: 110 % of control
dose: 3.0 mg/kg/injection, schedule: Q01DX Z (ip), vehicle: other
  T/C: 88 % of control

## C=CC(CN1CC1)OC(C)=O (stereo unspecified)
dose: 0.47 mg/kg/injection, schedule: Q01DX Z (ip), vehicle: carboxymethylcellulose (CMC)
  T/C: 106 % of control
dose: 0.95 mg/kg/injection, schedule: Q01DX Z (ip), vehicle: carboxymethylcellulose (CMC)
  T/C: 110 % of control
dose: 1.9 mg/kg/injection, schedule: Q01DX Z (ip), vehicle: carboxymethylcellulose (CMC)
  T/C: 103 % of control

## CC/C(=C(/CC)c1ccc(O)cc1)c1ccc(O)cc1
dose: 15.6 mg/kg/injection, schedule: Q01DX Z (sc), vehicle: steriod suspending solution
  T/C: 91 % of control

## Clc1ncnc2nc[nH]c12
dose: 8.0 mg/kg/injection, schedule: Q01DX Z (ip), vehicle: carboxymethylcellulose (CMC)
  T/C: 89 % of control
dose: 16.0 mg/kg/injection, schedule: Q01DX Z (ip), vehicle: carboxymethylcellulose (CMC)
  T/C: 101 % of control
dose: 31.0 mg/kg/injection, schedule: Q01DX Z (ip), vehicle: carboxymethylcellulose (CMC)
  T/C: 89 % of control
dose: 31.25 mg/kg/injection, schedule: Q01DX Z (ip), vehicle: carboxymethylcellulose (CMC)
  T/C: 110 % of control
dose: 62.5 mg/kg/injection, schedule: Q01DX Z (ip), vehicle: carboxymethylcellulose (CMC)
  T/C: 101 % of control
dose: 125.0 mg/kg/injection, schedule: Q01DX Z (ip), vehicle: carboxymethylcellulose (CMC)
  T/C: 110 % of control

## CSc1ncnc2c1ncn2C1OC(CO)C(O)C1O (stereo unspecified)
[1]
  T/C: 93 % of control
dose: 6.25 mg/kg/injection, schedule: Q01DX Z (ip), vehicle: carboxymethylcellulose (CMC)
  T/C: 110 % of control
[2]
  T/C: 179 % of control
[3]
  T/C: 104 % of control

## CC(=O)O[C@]1(C(C)=O)CC[C@H]2[C@@H]3C[C@H](C)C4=CC(=O)C=C[C@]4(C)[C@@]3(F)[C@@H](O)C[C@@]21C
dose: 0.63 mg/kg/injection, schedule: Q01DX Z (sc), vehicle: steriod suspending solution
  T/C: 107 % of control
dose: 1.25 mg/kg/injection, schedule: Q01DX Z (sc), vehicle: steriod suspending solution
  T/C: 98 % of control
dose: 2.5 mg/kg/injection, schedule: Q01DX Z (sc), vehicle: steriod suspending solution
  T/C: 103 % of control
dose: 5.0 mg/kg/injection, schedule: Q01DX Z (sc), vehicle: steriod suspending solution
  T/C: 90 % of control
dose: 10.0 mg/kg/injection, schedule: Q01DX Z (sc), vehicle: steriod suspending solution
  T/C: 119 % of control
dose: 20.0 mg/kg/injection, schedule: Q01DX Z (sc), vehicle: steriod suspending solution
  T/C: 87 % of control

## CN(C)c1ccc(Nc2c3ccccc3nc3ccccc23)cc1
dose: 1.6 mg/kg/injection, schedule: Q01DX Z (ip), vehicle: carboxymethylcellulose (CMC)
  T/C: 112 % of control
[1]
  T/C: 93 % of control
dose: 6.2 mg/kg/injection, schedule: Q01DX Z (ip), vehicle: carboxymethylcellulose (CMC)
  T/C: 96 % of control
[4]
  T/C: 117 % of control

## CC(CCC(C)OS(C)(=O)=O)OS(C)(=O)=O (stereo unspecified)
dose: 5.0 mg/kg/injection, schedule: Q01DX Z (ip), vehicle: carboxymethylcellulose (CMC)
  T/C: 88 % of control
dose: 10.0 mg/kg/injection, schedule: Q01DX Z (ip), vehicle: carboxymethylcellulose (CMC)
  T/C: 90 % of control
dose: 20.0 mg/kg/injection, schedule: Q01DX Z (ip), vehicle: carboxymethylcellulose (CMC)
  T/C: 87 % of control

## CC(=O)Nc1ccc2nc3ccc(NC(C)=O)cc3[n+](-c3ccccc3)c2c1
[4]
  T/C: 98 % of control

## Cn1cnc([N+](=O)[O-])c1Sc1ncnc2nc[nH]c12
[4]
  T/C: 89 % of control
[2]
  T/C: 105 % of control
[3]
  T/C: 115 % of control

## NC(=O)N(CCCl)N=O
dose: 0.12 mg/kg/injection, schedule: Q01DX Z (ip), vehicle: carboxymethylcellulose (CMC)
  T/C: 94 % of control
dose: 0.25 mg/kg/injection, schedule: Q01DX Z (ip), vehicle: carboxymethylcellulose (CMC)
  T/C: 114 % of control
dose: 1.0 mg/kg/injection, schedule: Q01DX Z (ip), vehicle: carboxymethylcellulose (CMC)
  T/C: 110 % of control

— PubChem BioAssay AID224 (DTP/NCI, 2004)
